Patent US9113629B2, “4-amino-6-(4-substituted-phenyl)-picolinates and 6-amino-2-(4-substituted-phenyl)-pyrimidine-4-carboxylates and their use as herbicides” (DOW AGROSCIENCES LLC, priority 2013, dated 2015)
Like-named read-outs stand apart in the source and are kept apart here.

What was measured:
[1] = test system: Key Broadleaf Weed and Crop Species; assay: Post-emergent Test II herbicidal activity (Table 5); format: in vivo; settings: post-emergence, 336 h, 14 days after application; for pest or weed control at 70 g/ha: application rate 70 g ai/ha; for pest or weed control at 140 g/ha: application rate 140 g ai/ha
Summary of the method: (§1)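 Test species were raised 7–21 d under greenhouse conditions until reaching the first or second true leaf, sprayed with formulated compound at 187 L/ha, and kept subirrigated to avoid wash-off. Fourteen days later, damage was rated visually on a 0–100% scale against untreated plants.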

[2] = test system: Key Grass and Sedge Weeds as well as Grass Crops; assay: Post-emergent Test II herbicidal activity (Table 6); format: in vivo; settings: post-emergence, 336 h; for pest or weed control at 70 g/ha: 70 g ai/ha; for pest or weed control at 140 g/ha: 140 g ai/ha
Summary of the method: as §1

[3] = ABUTH: velvetleaf (Abutilon theophrasti), read-out: Visual Growth Reduction (%) 14 Days After Application, ABUTH
[4] = AMARE: redroot pigweed (Amaranthus retroflexus), read-out: Visual Growth Reduction (%) 14 Days After Application, AMARE
[5] = BRSNN: oilseed-rape, canola (Brassica napus), read-out: Visual Growth Reduction (%) 14 Days After Application, BRSNN
[6] = CHEAL: lambsquarters (Chenopodium album), read-out: Visual Growth Reduction (%) 14 Days After Application, CHEAL
[7] = EPHHL: wild poinsettia (Euphorbia heterophylla), read-out: Visual Growth Reduction (%) 14 Days After Application, EPHHL
[8] = HELAN: sunflower (Helianthus annuus), read-out: Visual Growth Reduction (%) 14 Days After Application, HELAN
[9] = VIOTR: wild pansy (Viola tricolor), read-out: Visual Growth Reduction (%) 14 Days After Application, VIOTR
[10] = CYPES: yellow nutsedge (Cyperus esculentus), read-out: Visual Growth Reduction (%) 14 Days After Application, CYPES
[11] = DIGSA: crabgrass (Digitaria sanguinalis), read-out: Visual Growth Reduction (%) 14 Days After Application, DIGSA
[12] = ECHCG: barnyardgrass (Echinochloa crus-galli), read-out: Visual Growth Reduction (%) 14 Days After Application, ECHCG
[13] = ORYSA: rice (Oryza sativa), crop, read-out: Visual Growth Reduction (%) 14 Days After Application, ORYSA
[14] = SETFA: giant foxtail (Setaria faberi), read-out: Visual Growth Reduction (%) 14 Days After Application, SETFA
[15] = SORVU: grain sorghum (Sorghum vulgare), read-out: Visual Growth Reduction (%) 14 Days After Application, SORVU
[16] = TRZSS (wheat, Triticum aestivum), crop, read-out: Visual Growth Reduction (%) 14 Days After Application, TRZSS
[17] = ZEAMX: maize, corn (Zea mays), crop, read-out: Visual Growth Reduction (%) 14 Days After Application, ZEAMX

COC(=O)c1nc(-c2ccc(I)cc2)c(F)c(N)c1Cl [Compound 118, Methyl 4-amino-6-(4-iodophenyl)-3-chloro-5-fluoropicolinate]
pest or weed control at 70 g/ha [1, 3]: 95 to 100%
pest or weed control at 140 g/ha [1, 3]: 95 to 100%
pest or weed control at 70 g/ha [1, 4]: 95 to 100%
pest or weed control at 140 g/ha [1, 4]: 95 to 100%
pest or weed control at 70 g/ha [1, 5]: 95 to 100%
pest or weed control at 140 g/ha [1, 5]: 95 to 100%
pest or weed control at 70 g/ha [1, 6]: 95 to 100%
pest or weed control at 140 g/ha [1, 6]: 95 to 100%
pest or weed control at 70 g/ha [1, 7]: 95 to 100%
pest or weed control at 140 g/ha [1, 7]: 95 to 100%
pest or weed control at 70 g/ha [1, 8]: 95 to 100%
pest or weed control at 140 g/ha [1, 8]: 95 to 100%
pest or weed control at 70 g/ha [1, 9]: 85 to 94%
pest or weed control at 140 g/ha [1, 9]: 95 to 100%
pest or weed control at 70 g/ha [2, 10]: 95 to 100%
pest or weed control at 140 g/ha [2, 10]: 95 to 100%
pest or weed control at 70 g/ha [2, 11]: 75 to 84%
pest or weed control at 140 g/ha [2, 11]: 85 to 94%
pest or weed control at 70 g/ha [2, 12]: 95 to 100%
pest or weed control at 140 g/ha [2, 12]: 95 to 100%
pest or weed control at 70 g/ha [2, 13]: 30 to 44%
pest or weed control at 140 g/ha [2, 13]: 45 to 59%
pest or weed control at 70 g/ha [2, 14]: 45 to 59%
pest or weed control at 140 g/ha [2, 14]: 60 to 74%
pest or weed control at 70 g/ha [2, 15]: 95 to 100%
pest or weed control at 140 g/ha [2, 15]: 95 to 100%
pest or weed control at 70 g/ha [2, 16]: 75 to 84%
pest or weed control at 140 g/ha [2, 16]: 75 to 84%
pest or weed control at 70 g/ha [2, 17]: 60 to 74%
pest or weed control at 140 g/ha [2, 17]: 85 to 94%
